Columns and labels:
[1] = biological target: T1, human ALK2 R206H (Homo sapiens, UniProt Q04771, R206H); experiment: Cell-based ALK2-R206H cell activity assay (Smad1-Ser463/Ser465 phosphorylation by AlphaLISA in HEK293-ALK2-R206H cells); conditions: phospho-Smad1 AlphaLISA, read-out: Cell Line (Cell Assay, IC50 class)
T1 construct: expressed in transfected cells; host or cells: HEK293 (ATCC CRL1573), lentivirus transduction, blasticidin selection
T1 sequence (Q04771 21-509 R206H): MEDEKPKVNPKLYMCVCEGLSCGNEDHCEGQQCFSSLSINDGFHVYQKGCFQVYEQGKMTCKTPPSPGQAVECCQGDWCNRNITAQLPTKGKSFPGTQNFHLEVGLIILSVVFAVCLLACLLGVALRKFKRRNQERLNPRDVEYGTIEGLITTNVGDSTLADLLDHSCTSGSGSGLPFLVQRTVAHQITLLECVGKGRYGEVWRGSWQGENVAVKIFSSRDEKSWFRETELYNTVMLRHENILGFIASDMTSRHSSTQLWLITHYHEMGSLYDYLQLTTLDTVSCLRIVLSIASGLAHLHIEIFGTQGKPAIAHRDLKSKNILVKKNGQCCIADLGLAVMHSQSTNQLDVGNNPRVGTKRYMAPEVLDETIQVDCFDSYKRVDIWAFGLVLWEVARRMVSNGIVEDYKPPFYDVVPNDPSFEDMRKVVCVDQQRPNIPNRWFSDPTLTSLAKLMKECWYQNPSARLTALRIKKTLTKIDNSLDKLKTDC
How it was run: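 IC50 comes from a 10-point curve, scaled between DMSO and 1 μM LDN193189 controls, of lysate phospho-Smad1 (Ser463/465) measured by AlphaLISA. Compounds (top 10 μM or 1 μM, 3-fold steps, duplicates) were given 2-3 h to serum-starved HEK293 cells that stably express FLAG-tagged human ALK2 R206H.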

[2] = biological target: T2, ALK2R206H (mutant ALK2, N-terminally tagged with GST) (Homo sapiens, UniProt Q04771, R206H); experiment: ALK binding assay (LANTHASCREEN TR-FRET competitive binding, displacement of Kinase Tracer 178); conditions: read-out: Binding Assay (IC50 class)
T2 construct: purchased Carna Bioscience or ThermoFisher 09-148 or PV6232
T2 sequence (Q04771 21-509 R206H): T1 sequence (Q04771 21-509 R206H)
How it was run: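 Competitive displacement of Kinase Tracer 178 (50 nM) from N-terminally GST-tagged mutant ALK2 R206H (2-5 nM) by compound, detected by TR-FRET with Eu-anti-GST antibody (4-10 nM). 30 min room temperature incubation, 1% DMSO final; normalized signal fitted to 4-parameter log dose response for IC50.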

Row | SMILES | IC50 [1] | IC50 [2]
1 | Cn1cc(-c2[nH]c3nccc(N4CCN(C(=O)O[C@H]5C[C@H](F)C5)CC4)c3c2Cl)cn1 [Compound 340] | ≤ 100 nM | ≤ 10 nM
2 | CCOC(=O)N1CCN(c2ccnc3[nH]c(-c4cnn(C)c4)c(Br)c23)CC1 [Compound 341] | ≤ 100 nM | ≤ 10 nM
3 | N#Cc1c(-c2cn3c(n2)CCC3)[nH]c2nccc(N3CCN(C(=O)OC4COC4)CC3)c12 [Compound 342] | ≤ 100 nM | ≤ 10 nM
4 | CN(C)CCOc1ccc(-c2cc3c(N4CCN(C(=O)C5CC5)CC4)ccnc3[nH]2)cc1 [Compound 343] | ≤ 100 nM | ≤ 10 nM
5 | Cc1nc(-c2[nH]c3nccc(N4CCN(C(=O)OC5COC5)CC4)c3c2Cl)cs1 [Compound 344] | ≤ 100 nM | ≤ 10 nM
6 | O=C(O[C@H]1C[C@H](F)C1)N1CCN(c2ccnc3[nH]c(-c4cn(C(F)F)cn4)cc23)CC1 [Compound 345] | ≤ 100 nM | ≤ 10 nM
7 | CC#Cc1c(-c2cn(C)c(C)n2)[nH]c2nccc(N3CCN(C(=O)OC4COC4)CC3)c12 [Compound 347] | ≤ 100 nM | ≤ 10 nM
8 | COC(=O)COc1ccc(-c2cc3c(N4CCN(C(=O)C5CC5)CC4)ccnc3[nH]2)cc1 [Compound 348] | > 500 nM | ≤ 10 nM
9 | COc1ccc(-c2cc3c(N4CCN(C(=O)[C@H]5CC[C@H](O)CC5)CC4)ccnc3[nH]2)cc1 [Compound 349] | ≤ 100 nM | ≤ 10 nM
10 | CC(C)n1cnc(-c2[nH]c3nccc(N4CCN(C(=O)OC5COC5)CC4)c3c2C#N)c1 [Compound 350] | ≤ 100 nM | ≤ 10 nM
11 | CC(C)(C#N)n1cc(-c2cc3c(N4CCN(C(=O)OC5COC5)CC4)ccnc3[nH]2)cn1 [Compound 351] | 100 to 500 nM | ≤ 10 nM
12 | CC(C#N)Cn1cc(-c2cc3c(N4CCN(C(=O)OC5COC5)CC4)ccnc3[nH]2)cn1 (stereo not shown) [Compound 352] | 100 to 500 nM | ≤ 10 nM
13 | CCOC(=O)N1CCN(c2ccnc3[nH]c(-c4ccc([C@]5(O)CCOC5)cc4)cc23)CC1 [Compound 354] | ≤ 100 nM | ≤ 10 nM
14 | CCOC(=O)N1CCN(c2ccnc3[nH]c(-c4ccc([C@@]5(O)CCOC5)cc4)cc23)CC1 [Compound 355] | ≤ 100 nM | ≤ 10 nM
15 | Cc1nc(-c2[nH]c3nccc(N4CCN(C(=O)O[C@H]5C[C@@H](F)C5)CC4)c3c2C#N)cn1C [Compound 356] | ≤ 100 nM | ≤ 10 nM
16 | Cc1nc(-c2[nH]c3nccc(N4CCN(C(=O)O[C@H]5C[C@H](F)C5)CC4)c3c2C#N)cn1C [Compound 357] | ≤ 100 nM | ≤ 10 nM
17 | O=C(OC1COC1)N1CCN(c2ccnc3[nH]c(-c4cn([C@@H]5CCOC5)cn4)cc23)CC1 [Compound 358] | 100 to 500 nM | ≤ 10 nM
18 | O=C(OC1COC1)N1CCN(c2ccnc3[nH]c(-c4cn([C@H]5CCOC5)cn4)cc23)CC1 [Compound 359] | ≤ 100 nM | ≤ 10 nM
19 | CCS(=O)(=O)c1ccc(-c2cc3c(N4CCN(C(=O)C5CC5)CC4)ccnc3[nH]2)cc1 [Compound 362] | ≤ 100 nM | ≤ 10 nM
20 | Cc1nc(-c2[nH]c3nccc(N4CCN(C(=O)OCC(F)F)CC4)c3c2Cl)cn1C [Compound 363] | ≤ 100 nM | ≤ 10 nM
21 | Cc1nc(-c2[nH]c3nccc(N4CCN(C(=O)O[C@H]5C[C@H](F)C5)CC4)c3c2C#N)cs1 [Compound 365] | ≤ 100 nM | ≤ 10 nM
22 | Cn1cc(-c2[nH]c3nccc(N4CCN(C(=O)O[C@@H]5CCC5(F)F)CC4)c3c2C#N)cn1 [Compound 366] | ≤ 100 nM | ≤ 10 nM
23 | Cn1cc(-c2[nH]c3nccc(N4CCN(C(=O)O[C@H]5CCC5(F)F)CC4)c3c2C#N)cn1 [Compound 367] | ≤ 100 nM | ≤ 10 nM
24 | Cn1cnc(-c2[nH]c3nccc(N4CCN(C(=O)O[C@@H]5CCC5(F)F)CC4)c3c2C#N)c1 [Compound 368] | ≤ 100 nM | ≤ 10 nM
25 | Cn1cnc(-c2[nH]c3nccc(N4CCN(C(=O)O[C@H]5CCC5(F)F)CC4)c3c2C#N)c1 [Compound 369] | ≤ 100 nM | ≤ 10 nM
26 | Cn1cnc(-c2[nH]c3nccc(N4CCN(C(=O)OC5CC(F)(F)C5)CC4)c3c2C#N)c1 [Compound 370] | ≤ 100 nM | ≤ 10 nM
27 | O=C(OC1COC1)N1CCN(c2ccnc3[nH]c(-c4nc5c(s4)COCC5)cc23)CC1 [Compound 371] | ≤ 100 nM | ≤ 10 nM

Row | SMILES | IC50 [1] | IC50 [2]
28 | CC(C)(C)c1csc(-c2cc3c(N4CCN(C(=O)OC5COC5)CC4)ccnc3[nH]2)n1 [Compound 372] | ≤ 100 nM | ≤ 10 nM
29 | Cn1cc(-c2[nH]c3nccc(N4CCN(C(=O)[C@H]5CC[C@H](C#N)CC5)CC4)c3c2C#N)cn1 [Compound 374] | ≤ 100 nM | ≤ 10 nM
30 | N#Cc1c(-c2cn(C(F)F)cn2)[nH]c2nccc(N3CCN(C(=O)OC4COC4)CC3)c12 [Compound 375] | ≤ 100 nM | ≤ 10 nM
31 | N#Cc1c(-c2cnn(C(F)F)c2)[nH]c2nccc(N3CCN(C(=O)OC4COC4)CC3)c12 [Compound 376] | ≤ 100 nM | ≤ 10 nM
32 | CC(C)(O)c1cnc(-c2cc3c(N4CCN(C(=O)OC5COC5)CC4)ccnc3[nH]2)s1 [Compound 377] | ≤ 100 nM | ≤ 10 nM
33 | CC(C)(O)c1nc(-c2cc3c(N4CCN(C(=O)OC5COC5)CC4)ccnc3[nH]2)cs1 [Compound 378] | 100 to 500 nM | ≤ 10 nM
34 | CN1CCN(c2ccc(-c3cc4c(N5CCN(C(=O)C6CC6)CC5)ccnc4[nH]3)cc2)CC1 [Compound 380] | ≤ 100 nM | ≤ 10 nM
35 | CC(C)n1cc(-c2cc3c(N4CCN(C(=O)[C@H]5CC[C@H](C#N)CC5)CC4)ccnc3[nH]2)cn1 [Compound 381] | ≤ 100 nM | ≤ 10 nM
36 | CN1CCN(c2ccc(-c3cc4c(N5CCN(C(=O)C6CC6)CC5)ccnc4[nH]3)cn2)CC1 [Compound 382] | ≤ 100 nM | ≤ 10 nM
37 | CC(C)(C#N)c1ccc(-c2cc3c(N4CCN(C(=O)OC5COC5)CC4)ccnc3[nH]2)nc1 [Compound 383] | ≤ 100 nM | ≤ 10 nM
38 | O=C(C1CC1)N1CCN(c2ccnc3[nH]c(-c4ccc(C5(O)CCCOC5)cc4)cc23)CC1 (stereo not shown) [Compound 385] | ≤ 100 nM | ≤ 10 nM
39 | O=C(C1CC1)N1CCN(c2ccnc3[nH]c(-c4ccc(C5(O)CCOCC5)cc4)cc23)CC1 [Compound 386] | ≤ 100 nM | ≤ 10 nM
40 | Cc1nc(-c2cc3c(N4CCN(C(=O)OC5CS(=O)(=O)C5)CC4)ccnc3[nH]2)cs1 [Compound 387] | ≤ 100 nM | ≤ 10 nM
41 | CN(C)C(=O)COc1ccc(-c2cc3c(N4CCN(C(=O)C5CC5)CC4)ccnc3[nH]2)cc1 [Compound 388] | 100 to 500 nM | ≤ 10 nM
42 | O=C(C1CC1)N1CCN(c2ccnc3[nH]c(-c4ccc(C5CCNCC5F)cc4)cc23)CC1 (stereo not shown) [Compound 389] | ≤ 100 nM | ≤ 10 nM
43 | O=C(C1CC1)N1CCN(c2ccnc3[nH]c(-c4ccc(C5(F)CCCNC5)cc4)cc23)CC1 (stereo not shown) [Compound 390] | ≤ 100 nM | ≤ 10 nM
44 | O=C(OC1COC1)N1CCN(c2ccnc3[nH]c(-c4ccc(C5(O)CCC5)cc4)cc23)CC1 [Compound 392] | ≤ 100 nM | ≤ 10 nM
45 | N#Cc1c(-c2cn3c(n2)COCC3)[nH]c2nccc(N3CCN(C(=O)OC4COC4)CC3)c12 [Compound 394] | ≤ 100 nM | ≤ 10 nM
46 | N#Cc1c(-c2nc3c(s2)COCC3)[nH]c2nccc(N3CCN(C(=O)OC4CC4)CC3)c12 [Compound 395] | ≤ 100 nM | ≤ 10 nM
47 | CCOC(=O)N1CCN(c2ccnc3[nH]c(-c4ccc(C5(O)CCOCC5)cn4)cc23)CC1 [Compound 396] | ≤ 100 nM | ≤ 10 nM
48 | Cn1cc(-c2[nH]c3nccc(N4CCN(C(=O)[C@H]5CC[C@H](C#N)CC5)CC4)c3c2Cl)cn1 [Compound 397] | ≤ 100 nM | ≤ 10 nM
49 | Cn1cc(-c2cc3c(N4CCN(C(=O)O[C@@H]5CC(F)(F)C5(F)F)CC4)ccnc3[nH]2)cn1 [Compound 398] | ≤ 100 nM | ≤ 10 nM
50 | Cn1cc(-c2cc3c(N4CCN(C(=O)OC5CC(F)(F)C5(F)F)CC4)ccnc3[nH]2)cn1 (stereo not shown) [Compound 399] | 100 to 500 nM | ≤ 10 nM
51 | Cn1cc(-c2cc3c(N4CCN(C(=O)O[C@H]5CC(F)(F)C5(F)F)CC4)ccnc3[nH]2)cn1 [Compound 401] | ≤ 100 nM | ≤ 10 nM
52 | O=C(OC1COC1)N1CCN(c2ccnc3[nH]c(-c4cn(C5CCOCC5)cn4)cc23)CC1 [Compound 403] | ≤ 100 nM | ≤ 10 nM
53 | O=C(OC1COC1)N1CCN(c2ccnc3[nH]c(-c4cnn(C(F)F)c4)c(Cl)c23)CC1 [Compound 407] | ≤ 100 nM | ≤ 10 nM
